Measurements published in ChEMBL document CHEMBL5046289, “Targeting the S2 Subsite Enables the Structure-Based Discovery of Novel Highly Selective Factor XIa Inhibitors” (J Med Chem, 2022).
Active and inactive are the calls of the source. The rule behind the calls is not given here.

Columns and labels:
[1] = species: Homo sapiens; assay: Selectivity index, ratio of IC50 for coagulation factor Xa (unknown origin) to IC50 for coagulation factor XIa (unknown origin)
[2] = biological target: Serine protease 1 (Homo sapiens) (UniProt P07477); assay: Inhibition of trypsin (unknown origin) assessed as chromogenic substrate using CS-11(22) as substrate at 1 mM incubated for 1 hr by spectrophotometer based microplate reader method
[3] = biological target: Plasma kallikrein (Homo sapiens, UniProt P03952); assay: Inhibition of plasma kallikrein (unknown origin) assessed as chromogenic substrate hydrolysis using CS-31(02) as substrate incubated for 1 hr by spectrophotometer based microplate reader method
[4] = biological target: T1, Coagulation factor XII (Homo sapiens) (UniProt P00748); assay: Inhibition of coagulation factor XIIa (unknown origin) assessed as chromogenic substrate using TH5253 as substrate at 1 mM incubated for 1 hr by spectrophotometer based microplate reader method
T1 sequence (whole entry): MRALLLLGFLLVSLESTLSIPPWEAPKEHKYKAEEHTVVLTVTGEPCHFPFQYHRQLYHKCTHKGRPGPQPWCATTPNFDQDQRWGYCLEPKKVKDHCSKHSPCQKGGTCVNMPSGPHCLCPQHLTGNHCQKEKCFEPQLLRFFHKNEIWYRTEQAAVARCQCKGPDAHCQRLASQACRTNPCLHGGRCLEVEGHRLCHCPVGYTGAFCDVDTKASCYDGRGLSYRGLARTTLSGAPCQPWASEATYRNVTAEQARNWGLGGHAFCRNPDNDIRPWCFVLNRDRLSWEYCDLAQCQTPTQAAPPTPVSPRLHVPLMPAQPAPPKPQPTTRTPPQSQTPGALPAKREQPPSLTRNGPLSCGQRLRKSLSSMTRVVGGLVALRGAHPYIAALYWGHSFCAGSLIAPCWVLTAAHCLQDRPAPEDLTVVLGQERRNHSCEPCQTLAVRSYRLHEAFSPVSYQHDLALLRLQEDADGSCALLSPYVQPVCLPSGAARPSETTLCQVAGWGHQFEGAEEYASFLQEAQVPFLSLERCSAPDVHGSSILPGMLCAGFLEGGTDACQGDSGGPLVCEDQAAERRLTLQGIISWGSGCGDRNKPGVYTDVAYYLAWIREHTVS

[5] = tested on: Plasma; assay: Anticoagulant activity in mouse platelet-poor plasma assessed as increase in prothrombin time at 3.8 to 210 ug/ml incubated for 3 mins by coagulometer analysis; assay type: functional, cell-free; conditions: dose 3.8-210 µg/ml
[6] = biological target: Coagulation factor XI (Homo sapiens, UniProt P03951); conditions: dose 50.0 nM, time 1.0 hrs
[7] = Half life in Sprague-Dawley rat at 10 mg/kg, iv after 0.083 to 24 hrs by LC-MS/MS analysis; assay type: ADME, organism-based; conditions: in vivo, time 0.083-24 hrs

Plasma kallikrein, sequence (P03952 20-390 limits assumed): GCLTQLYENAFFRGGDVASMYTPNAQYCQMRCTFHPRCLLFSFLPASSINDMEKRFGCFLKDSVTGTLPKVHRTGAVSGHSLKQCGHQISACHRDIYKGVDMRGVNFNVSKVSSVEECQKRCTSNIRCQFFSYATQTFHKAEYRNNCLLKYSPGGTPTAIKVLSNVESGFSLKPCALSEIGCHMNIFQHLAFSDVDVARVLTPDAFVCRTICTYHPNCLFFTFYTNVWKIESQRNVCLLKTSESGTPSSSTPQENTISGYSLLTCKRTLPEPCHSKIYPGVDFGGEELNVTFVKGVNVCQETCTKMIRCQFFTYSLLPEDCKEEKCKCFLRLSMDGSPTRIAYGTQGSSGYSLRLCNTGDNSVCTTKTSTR
Plasma kallikrein, sequence (P03952 391-638 limits assumed): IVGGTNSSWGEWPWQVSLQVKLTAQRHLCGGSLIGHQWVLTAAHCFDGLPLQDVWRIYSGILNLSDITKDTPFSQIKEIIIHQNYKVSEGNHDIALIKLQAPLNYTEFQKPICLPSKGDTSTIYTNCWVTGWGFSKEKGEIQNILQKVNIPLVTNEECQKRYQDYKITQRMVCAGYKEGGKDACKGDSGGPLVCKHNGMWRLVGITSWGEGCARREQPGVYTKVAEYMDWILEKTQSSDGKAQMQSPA
Serine protease 1 (Homo sapiens), sequence (P07477 whole entry): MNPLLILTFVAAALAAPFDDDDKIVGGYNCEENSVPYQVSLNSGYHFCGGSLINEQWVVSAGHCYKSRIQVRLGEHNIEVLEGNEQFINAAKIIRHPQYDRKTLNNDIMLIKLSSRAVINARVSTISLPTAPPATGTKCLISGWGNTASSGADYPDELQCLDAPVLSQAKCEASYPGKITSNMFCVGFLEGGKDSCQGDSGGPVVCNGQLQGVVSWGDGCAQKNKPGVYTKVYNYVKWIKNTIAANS
Coagulation factor XI, sequence (P03951 19-387 limits assumed): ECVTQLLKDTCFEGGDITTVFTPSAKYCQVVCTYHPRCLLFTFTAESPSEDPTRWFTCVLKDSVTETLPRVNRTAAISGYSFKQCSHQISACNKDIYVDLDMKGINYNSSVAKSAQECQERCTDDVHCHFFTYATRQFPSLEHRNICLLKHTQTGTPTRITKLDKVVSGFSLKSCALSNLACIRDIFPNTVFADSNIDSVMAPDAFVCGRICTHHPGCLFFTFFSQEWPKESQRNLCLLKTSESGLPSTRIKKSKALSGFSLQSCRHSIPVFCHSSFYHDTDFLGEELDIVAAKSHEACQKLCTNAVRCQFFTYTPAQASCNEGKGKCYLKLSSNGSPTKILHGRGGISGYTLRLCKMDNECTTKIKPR
Coagulation factor XI, sequence (P03951 388-625 limits assumed): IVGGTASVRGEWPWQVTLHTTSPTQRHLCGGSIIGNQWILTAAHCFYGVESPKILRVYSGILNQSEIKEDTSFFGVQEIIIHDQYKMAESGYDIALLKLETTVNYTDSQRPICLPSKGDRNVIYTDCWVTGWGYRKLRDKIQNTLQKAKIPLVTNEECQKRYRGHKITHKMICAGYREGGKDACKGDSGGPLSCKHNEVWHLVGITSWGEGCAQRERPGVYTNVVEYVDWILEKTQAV

Structure (SMILES): O=C(/C=C/c1cc(Cl)ccc1-n1cnnn1)N[C@@H](CC(=O)N1CCN(c2ccccc2)CC1)C(=O)Nc1ccc(C(=O)O)cc1
- Ratio IC50 [1]: > 5000
- inhibition [2]: inactive
- IC50 [3]: 27.9 µM
- inhibition [4]: inactive
- Activity [5]: inactive
- inhibition [6]: 59.4%
- half-life [7]: 1.26 h
